Laboratory results as given in US20230192715A1 (priority 2020, published 2023).

Experiments:
[1] = Double-blind placebo controlled randomized clinical trial in major depressive disorder; assay type: in vivo, human
BDNF = settings: humans; plasma, healthy volunteers, 14-day Phase 1 study; cited from earlier work
PD95, GluR1 = settings: in vivo; cited from earlier work
mRNA for NMDAR1 = settings: in vitro; cited from earlier work
serotonin receptors = settings: Rickli et al, 2018; cited from earlier work

SMILES: CCC(=O)C(C[C@H](C)N(C)C)(c1ccccc1)c1ccccc1 [Dextromethadone]
- persistence of remission ([1]; after discontinuation of treatment): persisted for at least seven days after discontinuation of treatment
- patients with remission of disease (MADRS<10) ([1]; within the first week of treatment, 5% in patients randomized to placebo): over 30%
- BDNF (BDNF): increases BDNF
- levels of PD95, GluR1 (PD95, GluR1): increases levels of PD95, GluR1
- mRNA for NMDAR1 (mRNA for NMDAR1): increases mRNA for NMDAR1

SMILES: CN1CC[C@@]23c4c5ccc(O)c4O[C@@H]2[C@H](O)C=C[C@@H]3[C@@H]1C5 [Levomorphine]
- actions at serotonin receptors (serotonin receptors): no actions at serotonin receptors
